From patent US20250025543A1, “DRUG FOR TREATING AND/OR PREVENTING CANCER AND USE THEREOF” (YUANBEN (ZHUHAI HENGQIN) BIOTECHNOLOGY CO., LTD., priority 2021, published 2025) come the findings set out here.

Where two headings read alike, the source gives them in different places.

The test system of experiment [1] is MC38 colon cancer. Kind of experiment: Vaccine prepared by three-step purification in treatment of MC38 colon cancer alone, compared with anti-PD-1 antibody (Example 3). Type of experiment: in vivo, C57 BL/6J mice.
The test system of experiment [2] is MC38 colon cancer. The following applies: for Tumor cure rate: groups of 8; for Tumor inhibition rate: vs NS control group.
Procedure: (§1) The tumor graft inhibition rate and the tumor inhibition rate of the subcutaneous colon cancer in each group were calculated. The formula is as follows: [tumor inhibition rate=(mean tumor weight in control group −mean tumor weight in experimental group)/mean tumor weight in control group×100%]. [tumor cure rate=(number of mice without tumor/total number of mice)×100%].
Mice were weighed and randomly divided into groups of 8. MC38 colon cancer cells were diluted with an IMDM basal medium and inoculated in the right axilla of the C57BL/J mice according to 5×10^5 cells/mouse, with a total amount of 100 μL/mouse, for modeling. After the tumor diameter reached 5 mm, the mice were divided into 4 groups, namely a normal saline control group (NS group), an oxaliplatin injection group (oxaliplatin group), a recombinant MBP-MUC1-N fusion protein vaccine group (vaccine group), and an oxaliplatin in combination with recombinant MBP-MUC1-N fusion protein vaccine formulation group (combination group). On day 3, day 7, day 10, day 14, and day 17 of tumor bearing, the recombinant MBP-MUC1-N fusion protein vaccine formulation was intramuscularly injected at a dose of 100 pg/mouse (diluted with NS, with a total amount of 200 μL) for immunization, and oxaliplatin was intraperitoneally injected at a dose of 3 mg/kg (diluted with 12% DMSO).
Experiment [3] concerns MC38 colon cancer.
Procedure: Mice were weighed and randomly divided into groups of 6. MC38 colon cancer cells were diluted with an IMDM basal medium and inoculated in the right axilla of the C57BL/J mice according to 5×10^5 cells/mouse, with a total amount of 100 μL/mouse, for modeling. After the tumor diameter reached 5 mm, the mice were divided into 4 groups, namely a normal saline control group (NS group), an immune checkpoint inhibitor anti-PD-1 antibody injection group (PD-1 group), a recombinant MBP-MUC1-N fusion protein vaccine group (vaccine group), and a recombinant MBP-MUC1-N fusion protein vaccine formulation in combination with immune checkpoint inhibitor anti-PD1 antibody group (combination group). On day 3, day 7, day 10, day 14, and day 17 of tumor bearing, the recombinant MBP-MUC1-N fusion protein vaccine formulation was intramuscularly injected at a dose of 100 μg/mouse (diluted with NS, with a total amount of 200 μL) for immunization, and the immune checkpoint inhibitor anti-PD-1 antibody was intraperitoneally injected at a dose of 250 μg/mouse (diluted with NS, with a total amount of 500 tL/mouse).
as §1

As to “Vaccine group: recombinant fusion protein of maltose-binding protein MBP and human mucin MUC1-N in tandem (SEQ ID NO. 3), as vaccine”, the Tumor volume in the experiment on MC38 colon cancer [1] (3 days after injection) was 0.41+0.17 cm^3; in the experiment on MC38 colon cancer [1] (7 days after injection) it was 1.11+0.83 cm^3; with MC38 colon cancer [1] (10 days after injection), 1.53+0.55 cm^3. Moreover, the Tumor weight is given as 1.53 ± 0.55 g with MC38 colon cancer [1] (MC38 tumor-bearing mice, vaccine 50 μg/mouse i.m., anti-PD-1 antibody 200 μg/mouse i.p., day 3, 7, 10, 14 of tumor bearing) and 1.96 ± 0.80 g with MC38 colon cancer [3] (MC38 tumor-bearing mice, vaccine 100 μg/mouse i.m., anti-PD-1 antibody 250 μg/mouse i.p., day 3, 7, 10, 14, 17 of tumor bearing). Further, the Tumor cure rate with MC38 colon cancer [1] (groups of 10) is recorded as 40%; in the experiment on MC38 colon cancer [2], 0%; in the experiment on MC38 colon cancer [3] (number of mice without tumor/total number of mice, groups of 6), 0%. Also, the Tumor inhibition rate with MC38 colon cancer [1] (vs PBS control group) is given as 40%; with MC38 colon cancer [2] it was 27%; in the experiment with MC38 colon cancer [3] (from mean tumor weight vs NS control group) it was 26%.
Take `O=C1[O][Pt]2([NH][C@@H]3CCCC[C@H]3[NH]2)[O]C1=O` [Oxaliplatin group, oxaliplatin]: the figures for the Tumor volume in the experiment on MC38 colon cancer [2] (5 days after injection) and in the experiment with MC38 colon cancer [2] (7 days after injection) were 0.46 ± 0.12 cm^3 and 0.81 ± 0.20 cm^3, respectively. The “Survival time of the mice suffering from the cancer” value with MC38 colon cancer [2] (MC38 tumor-bearing mice, FIG. 3) stood at 29 days. In addition, the Tumor cure rate in the experiment on MC38 colon cancer [2] is listed as 12.5%. Besides, the Tumor inhibition rate in the experiment on MC38 colon cancer [2] is reported as 50%.
